This note sets out measurements from ChEMBL document CHEMBL1201862, “PubChem BioAssay data set” (2004).

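How tested: cells in 96-well plates exposed to compound for 48 hours at five concentrations. The concentration for 50% growth inhibition is given as GI50.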 Activity calls are given as the source filed them. Cut-off read from the data, not from the text of the source: active = GI50 up to about 1.1 µM and inactive = higher.

Some test systems named below: Hs-578T; OVCAR-3; CAKI-1; SW-620; HCT-15; PC-3; NCI-H226; K562; A498; OVCAR-8; HOP-92; OVCAR-4; TK-10; COLO 205; SK-OV-3; SN12C; BT-549; SNB-75; KM12; NCI-H522.
Common to all, as to assay: NCI anticancer screen, dose series, 48 h

For `CC(=O)c1cnc2oc3ccc(O)cc3c2c1-c1ccccc1`, the GI50 in the test on Hs-578T is 14.2 µM (inactive); in the test with OVCAR-3, 17.3 µM (inactive); in the test with CAKI-1 it was 29.4 µM (inactive); with SW-620, > 100 µM (inactive); in the test on HCT-15 it was 58.1 µM; in the test on PC-3, 21.4 µM (inactive). The GI50 in the test on NCI-H226 was 35.6 µM (inactive); in the test on K562, 41.6 µM (inactive); in the test with A498 it was 17.5 µM (inactive); with OVCAR-8, 29.4 µM (inactive); in the test with HOP-92, 18.3 µM (inactive); in the test on OVCAR-4, 15 µM (inactive). Besides, the GI50 with TK-10 was 28.6 µM (inactive); with COLO 205, 30.3 µM (inactive); in the test on SK-OV-3 it was 14 µM (inactive); in the test on SN12C it was 44.4 µM (inactive).
As for `OC12COc3ccccc3C1Oc1ccccc1C2` (stereo not given), the GI50 was > 100 µM (inactive) in the test on OVCAR-3; > 100 µM (inactive) in the test with BT-549; > 100 µM (inactive) with CAKI-1; > 100 µM (inactive) with SW-620; greater than 100 µM in the test with HCT-15; > 100 µM (inactive) with PC-3. Besides, the GI50 with NCI-H226, in the test on SNB-75, in the test with K562, with A498, with OVCAR-8 and in the test on HOP-92 was > 100 µM (inactive) in each case. In addition, the GI50 in the test on KM12, in the test on OVCAR-4, in the test with TK-10, in the test on COLO 205, in the test on NCI-H522 and with SK-OV-3 was > 100 µM (inactive) throughout. Moreover, the GI50 in the test on SN12C is > 100 µM (inactive).
On to `CCOC(=O)N(C)C(=C(F)F)C(F)(F)F`, for which the GI50 is 30.4 µM (inactive) in the test with Hs-578T; 36 µM (inactive) in the test with OVCAR-3; 21.2 µM (inactive) in the test with SW-620; 16.3 µM with HCT-15; 30.9 µM (inactive) with PC-3; 19.2 µM (inactive) with NCI-H226. For the same compound, the GI50 in the test on SNB-75 was 29.5 µM (inactive); in the test with K562, 22.1 µM (inactive); in the test with OVCAR-8 it was 23.8 µM (inactive); in the test with HOP-92 it was 25.4 µM (inactive); in the test with KM12 it was 35 µM (inactive); in the test with OVCAR-4 it was 28 µM (inactive). The GI50 in the test on TK-10 is 27.8 µM (inactive); in the test with COLO 205 it was 21 µM (inactive); with SK-OV-3, 36 µM (inactive); in the test on SN12C, > 10 µM (inactive).
As to `O=C1CCCc2cc3c(cc21)CC1(Cc2ccccc2C1)C3`, the GI50 in the test with Hs-578T is 7.59 µM (inactive); in the test with OVCAR-3, 2.56 µM (inactive); in the test on HCT-15, 3.59 µM; with PC-3, > 100 µM (inactive); with NCI-H226, 2.03 µM (inactive); with SNB-75, 0.106 µM (active). Also, the GI50 in the test on K562 was 1.86 µM (inactive); with A498 it was 9.12 µM (inactive); in the test with OVCAR-8 it was 6.28 µM (inactive); with HOP-92, 10.8 µM (inactive); in the test on KM12 it was 2.5 µM (inactive); with OVCAR-4, 6.31 µM (inactive). Besides, the GI50 in the test on TK-10 was 7.16 µM (inactive); in the test with COLO 205, 1.93 µM (inactive); with NCI-H522, 3.94 µM (inactive); in the test on SK-OV-3, 5.11 µM (inactive); in the test with SN12C, 4.52 µM (inactive).
`CCOC(=O)c1c(N)n(-c2ccccc2)c(=S)n(-c2ccccc2)c1=O`: the GI50 was > 100 µM (inactive) with Hs-578T; > 100 µM (inactive) in the test with OVCAR-3; > 100 µM (inactive) in the test on BT-549; > 100 µM (inactive) in the test with SW-620; greater than 100 µM in the test on HCT-15; > 100 µM (inactive) in the test on NCI-H226. The GI50 with SNB-75, in the test with K562, in the test with OVCAR-8, with HOP-92, in the test with KM12 and with OVCAR-4 was > 100 µM (inactive) throughout. In addition, the GI50 with TK-10, in the test on COLO 205, in the test on NCI-H522 and with SN12C was > 100 µM (inactive) in each case.
For the compound `Cc1ccc(S(=O)(=O)N2CCSCCN(S(=O)(=O)c3ccc(C)cc3)CCN(S(=O)(=O)c3ccc(C)cc3)CC2)cc1`, the GI50 in the test with Hs-578T is 25.7 µM (inactive); in the test on OVCAR-3, > 100 µM (inactive); in the test with BT-549, 27.8 µM (inactive); with SW-620 it was > 100 µM (inactive); in the test with NCI-H226 it was > 100 µM (inactive); in the test on K562, > 100 µM (inactive). Also, the GI50 is 69.7 µM (inactive) with A498; 37.8 µM (inactive) with OVCAR-8; 0.184 µM (active) in the test with HOP-92; > 100 µM (inactive) with OVCAR-4; > 100 µM (inactive) with COLO 205; 30.1 µM (inactive) in the test with SK-OV-3. Moreover, the GI50 with SN12C is > 100 µM (inactive).
For the compound `COC(=O)c1ccc2c(c1)CC1(C2)Cc2ccc3c(c2C1)CCC3` (stereo not given), the GI50 was 37.9 µM (inactive) in the test with Hs-578T; 80.2 µM (inactive) in the test on OVCAR-3; 0.0543 µM (active) with CAKI-1; 14.4 µM (inactive) with SW-620; 20.1 µM in the test with HCT-15; 6.98 µM (inactive) in the test on PC-3. The GI50 is 47.6 µM (inactive) with NCI-H226; 33.3 µM (inactive) with SNB-75; 6.64 µM (inactive) in the test on K562; 69.2 µM (inactive) in the test on OVCAR-8; 0.855 µM (active) in the test with HOP-92; 12.6 µM (inactive) with KM12. The GI50 is 0.809 µM (active) in the test with OVCAR-4; > 100 µM (inactive) in the test on TK-10; 9.84 µM (inactive) with COLO 205; 20.7 µM (inactive) in the test with NCI-H522; 13.6 µM (inactive) with SK-OV-3; 18.6 µM (inactive) with SN12C.
Consider `CC(CC(=O)N1C2CC3CCC2(CS1(=O)=O)C3(C)C)[Si](C)(C)C` (stereo not given), for which the GI50 in the test on Hs-578T was > 100 µM (inactive); with OVCAR-3, > 100 µM (inactive); in the test with BT-549, > 100 µM (inactive); with CAKI-1 it was > 100 µM (inactive); in the test on SW-620 it was > 100 µM (inactive); in the test with HCT-15, greater than 100 µM. Besides, the GI50 is 61.5 µM (inactive) with PC-3; > 100 µM (inactive) in the test on NCI-H226; > 100 µM (inactive) in the test on SNB-75; > 100 µM (inactive) with K562; > 100 µM (inactive) with OVCAR-8; > 100 µM (inactive) in the test with KM12. The GI50 with TK-10, with COLO 205, in the test on NCI-H522 and in the test with SN12C was > 100 µM (inactive) throughout.
Take `O=C1CCCCC(=O)OC2(CCCCC2=O)CC1` (stereo not given): the GI50 with OVCAR-3 was > 100 µM (inactive); with BT-549, > 100 µM (inactive); with CAKI-1, > 100 µM (inactive); in the test with SW-620, > 100 µM (inactive); with HCT-15, greater than 100 µM; with PC-3, > 100 µM (inactive). Besides, the GI50 with NCI-H226 was > 100 µM (inactive); with SNB-75, 5.82 µM (inactive); with K562, > 100 µM (inactive); with A498 it was > 100 µM (inactive); with OVCAR-8 it was > 100 µM (inactive); in the test on HOP-92 it was > 100 µM (inactive). Besides, the GI50 with KM12, with OVCAR-4, in the test with TK-10, with COLO 205, with NCI-H522 and in the test with SK-OV-3 was > 100 µM (inactive) throughout. In addition, the GI50 in the test with SN12C is > 100 µM (inactive).
In the case of `c1cc2c(c(NC3=NCCO3)c1)CCC2`, the GI50 was 78.2 µM (inactive) with Hs-578T; > 100 µM (inactive) in the test with OVCAR-3; > 100 µM (inactive) in the test with CAKI-1; > 100 µM (inactive) in the test on SW-620; greater than 100 µM in the test on HCT-15; 67 µM (inactive) in the test with PC-3. Moreover, the GI50 in the test with NCI-H226 is > 100 µM (inactive); in the test with K562, > 100 µM (inactive); with A498, > 100 µM (inactive); in the test with OVCAR-8, > 100 µM (inactive); in the test with HOP-92, 94.4 µM (inactive); with KM12, > 100 µM (inactive). For the same compound, the GI50 in the test with OVCAR-4, with TK-10, with COLO 205, with NCI-H522, in the test with SK-OV-3 and in the test on SN12C was > 100 µM (inactive) each time.
As to `CCN(CC)CCC(=O)/C=C/c1ccc(Cl)c(Cl)c1`, the GI50 is 8.61 µM (inactive) in the test on OVCAR-3; 4.49 µM (inactive) in the test with BT-549; 2.55 µM (inactive) with SW-620; 3.66 µM in the test with HCT-15; 4.31 µM (inactive) in the test on PC-3; > 10 µM (inactive) with NCI-H226. The GI50 in the test with K562 is 3.68 µM (inactive); with OVCAR-8, 4.21 µM (inactive); in the test on HOP-92 it was > 10 µM (inactive); in the test with KM12, 2.36 µM (inactive); in the test on OVCAR-4, 9.35 µM (inactive); in the test with TK-10, 2.65 µM (inactive). For the same compound, the GI50 in the test on COLO 205 is 3.85 µM (inactive); in the test with NCI-H522 it was 1.58 µM (inactive); in the test with SN12C, 1.86 µM (inactive).
As for `COc1cc(/C=C/C(=O)O)ccc1O` [FERULATE], the GI50 was > 100 µM (inactive) in the test with Hs-578T; > 100 µM (inactive) with OVCAR-3; > 100 µM (inactive) with CAKI-1; > 100 µM (inactive) in the test on SW-620; greater than 100 µM in the test with HCT-15; > 100 µM (inactive) with PC-3. The GI50 in the test on NCI-H226, in the test with SNB-75, with K562, in the test on OVCAR-8, with HOP-92 and with KM12 was > 100 µM (inactive) throughout. Also, the GI50 in the test on OVCAR-4, in the test on TK-10, in the test with COLO 205, with NCI-H522 and in the test on SN12C was > 100 µM (inactive) each time.
